Reference: patent US12606795B2 (Thankcome Biological Science and Technology (SuZhou) Co., …, priority 2023, dated 2026)

What was measured:
S. typhimurium TA98 = settings: TA98 −S9
Description: (§1) Bacterial strains used were Salmonella typhimurium TA97a (National Center for Type Culture Collection NTCC, 506391), S. typhimurium TA98 (NTCC, 506392), S. typhimurium TA100 (NTCC, 506395), S. typhimurium TA1535 (NTCC, 506396), and Escherichia coli WP2 uvrA (CHI Scientific, Co., Ltd., product number: 6-1705). To prepare a drug delivery formulation, distilled water was used as a carrier to prepare a suspension (100 mg/mL) for a test item. […] Therefore, bacteria in samples for the test item were removed by a mechanical means. In the process of mixing the formulation, any soluble components for the test item was dissolved in the carrier, and then, residual bacteria were removed by centrifugation (4° C.; 8000 rpm; 10 min). After centrifugation, liquid supernatant was removed and sterile filtration was performed with a 0.22 μm filter.
(§2) In the confirmatory mutation research, detection was performed at 15.81, 50, 158.1, 500, 1581, and 5000 μg/plate. The maximum concentration was recommended by current regulations and guidelines. […] The survival rate of test bacterial cells was checked through plate experiments in each test. If there is a dosage-related increase in the number of revertants, it is considered that the test item has mutagenicity, and/or a reproducible biology-related positive reaction targeting at least one dosage group occurs in at least one strain with or without metabolic activation.

[1] = system: Salmonella typhimurium TA97a; settings: TA97a −S9
Description: as §1, §2

[2] = system: Escherichia coli WP2 uvrA; settings: Escherichia coli WP2A uvr −S9
Description: as §1, §2

S. typhimurium TA100 = settings: TA100 −S9
Description: as §1, §2

Structure (SMILES) | Number of revertant mutants per plate (mean ± standard deviation) (S. typhimurium TA98) | Number of revertant mutants per plate (mean ± standard deviation) [1] | Number of revertant mutants per plate (mean ± standard deviation) [2] | Number of revertant mutants per plate (mean ± standard deviation) (S. typhimurium TA100)
CN(C)c1ccc(N=NS(=O)(=O)[O-])cc1.[Na+] [Positive control 1, fenaminosulf] | 1525.00 | 1169.4 | – | –
COS(C)(=O)=O [Positive control 2, methyl methylsulfonate] | – | – | 613.40 | 1347.00
